Assay results as given in patent publication US20240049721A1, “COMPOSITIONS AND METHODS FOR CONTROLLING FUNGI” (priority 2020, published 2024).
Several values for one entry are separate records, joined by “and”; a condition that tells them apart may be missing. Identical values can stand only once.

How the values were obtained:
Fusarium graminearum = format: in vivo; settings: wheat crop
Leaf blotch = experiment: Wheat trial: leaf blotch; format: in vivo; settings: wheat crop
[1] = Oxidative degradation of essential oils under UV and Vis light; format: physicochemical
Method: (§1) AgriCell-encapsulated EOs, which were AC-Eugenol, AC-Geraniol, and AC-Thymol, (200 mg/mL of EO loaded with 200 mg/mL of AgriCell) were diluted 1:10 in deionized water (total volume 1000 μL, 14 replicates for each EO) and the solutions were left under UV radiation for a total period of 7 days. One replicate of each EO per treatment was collected daily and tested for EO content by UV-Vis spectroscopy as described in Example 2. Results were reported as concentration of EO as function of time for each stability condition.

[2] = Thermal degradation of essential oils at 40° C.; format: physicochemical
Method: as §1, with “at 40° C.” for “under UV radiation”, “content.” for “content by UV-Vis spectroscopy as described in Example 2.”

[3] = Loading (encapsulation) efficacy of essential oils into AgriCell; format: physicochemical; settings: EO encapsulated into AgriCell; original EO concentration 200 mg/mL; UV-Vis at 280 nm after ethanol extraction
Method: After AgriCells are purified, the concentrated AgriCell paste or dry lyophilized powder is loaded with EOs. If dry, the AgriCells are first homogenized into a finer powder through mechanical homogenization. A stock solution from each EO is prepared in ethanol at 100 mg/mL-200 mg/mL. Lyophilized AgriCells would then be suspended in a solution with the EO solution at a ratio of 1 g of dry AgriCells to 10 mL of EO solution. Once resuspended, the ethanol is allowed to evaporate overnight, leaving behind EO encapsulated AgriCells in the process. After this overnight period, encapsulated AgriCells are removed from the beaker, and the EO-encapsulated AgriCell powder is mechanically homogenized. This encapsulated product is ready for resuspension in its appropriate medium. Loading efficacy was measured and/or calculated as percentage of EO loaded into AgriCell after extraction with ethanol 100% v/v and quantification by UV-Vis spectroscopy. Eugenol, geraniol and thymol were quantified at 280 nm.

[4] = Thermogravimetric analysis (TGA) 37° C. to 500° C.; format: physicochemical; settings: temperature increase from 37° C. to 500° C.
Method: FIG. 9 illustrates thermogravimetric Analysis (“TGA”) between AgriCell encapsulated Thymol (“AC Thymol”) and free Thymol (“Thymol”; not encapsulated by AgriCell) along with gradual increase of temperature from 37° C. to 500° C.

Botrytis cinerea = settings: against B. cinerea; reported value; cited from earlier work

CC(C)(C)C(O)(CCc1ccc(Cl)cc1)Cn1cncn1 (stereo not drawn) [Tebuconazole (Folicur), Tebuconazole]
Average FHB severity % (Fusarium graminearum): 8.3% and 1.5%
FHB Incidence % (Fusarium graminearum): 4.2% and 2.5%
Leaf blotch Incidence % (Leaf blotch): 100%
Leaf blotch severity % (Leaf blotch): 3.6% and 3.8%

C=CCc1ccc(O)c(OC)c1 [eugenol]
oxidative degradation (reduction of EO) ([1]; 7 days, 20 mg/mL): 82.6%
percentage of degradation (thermal) ([2]; 7 days, 20 mg/mL): 82.6%
encapsulation efficacy [3]: 95.5%

CC(C)=CCC/C(C)=C/CO [geraniol]
oxidative degradation (reduction of EO) ([1]; UV radiation, after 7 days, diluted 1:10 in deionized water): 72.6%
percentage of degradation (thermal) ([2]; 40° C., day 7, diluted 1:10 in deionized water): 84.2%
encapsulation efficacy [3]: 89.0%

Cc1ccc(C(C)C)c(O)c1 [thymol]
oxidative degradation (reduction of EO) ([1]; 7 days, 20 mg/mL): 55.8%
start of accelerated degradation (TGA) [4]: about 62 °C
percentage of degradation (thermal) ([2]; 7 days, 20 mg/mL): 79.1%
reported EC50 (Botrytis cinerea): 21.32 µg/mL
encapsulation efficacy [3]: 91.8%
